The record followed here is patent publication US20240315237A1, “METHODS FOR SINGLE CELL ANALYSIS OF GLUCOSE INTERNALIZATION” (ABBOTT DIABETES CARE INC., priority 2023, published 2024).

Common to all, as to assay type: cell-based
For assay [1], the target named is T1, GLUT1 (Homo sapiens, UniProt P11166).
T1 construct: Adult human RBCs exclusively express the glucose transporter 1 (GLUT1) encoded by the SLC2A1 gene; endogenous in cells; host or cells: human erythrocytes (RBCs) isolated from blood
T1 sequence (P11166 1-492): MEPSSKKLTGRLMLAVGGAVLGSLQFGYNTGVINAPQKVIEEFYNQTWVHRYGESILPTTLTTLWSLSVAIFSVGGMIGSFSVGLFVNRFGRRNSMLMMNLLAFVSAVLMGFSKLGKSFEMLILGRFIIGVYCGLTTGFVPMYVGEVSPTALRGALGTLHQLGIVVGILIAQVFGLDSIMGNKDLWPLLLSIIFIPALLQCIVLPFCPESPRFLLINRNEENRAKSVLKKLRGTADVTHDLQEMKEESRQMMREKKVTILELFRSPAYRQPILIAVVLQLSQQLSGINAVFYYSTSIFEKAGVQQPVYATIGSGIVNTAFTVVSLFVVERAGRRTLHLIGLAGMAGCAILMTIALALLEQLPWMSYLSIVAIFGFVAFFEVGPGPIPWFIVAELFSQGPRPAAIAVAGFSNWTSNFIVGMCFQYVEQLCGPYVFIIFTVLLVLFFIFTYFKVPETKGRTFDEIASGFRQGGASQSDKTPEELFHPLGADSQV
Briefly: glucose competition study with unlabeled D-glucose (flow cytometry). The settings on record: 20 μM tracer; for mean intensity maintained, % of the mean intensity of the control sample: 100 mM unlabeled D-glucose (5000× tracer), 60 min, 37° C., human RBCs. The method, then: (§1) To test the tracer specificity, a competition experiment was first performed on the flow cytometer under identical settings as were used in the membrane integrity experiments above. Aliquots of solutions of RBCs containing KCl solution and 20 μM of a given glucose tracer were incubated for 60 minutes at 37° C. shaker at 400 RPM containing a selected concentration of unlabeled D-glucose (i.e., 0.00, 0.01, 0.50, 1.00, 5.00, 25.00, 50.00 or 100.00 mM). After incubation, cells were washed one time in 125 KCl solution containing the selected concentration of D-glucose and promptly measured on the flow cytometer using the conditions described above. Next, GLUT1-specific transport was further tested by preparing washed RBC solutions as described above and then incubating the RBC solutions with one of the GLUT1 inhibitors on a 37° C. shaker at 400 RPM for one hour of incubation. […] Samples were then spun down, and supernatant was removed and fresh inhibitor/KCl solution was added and inverted. Glucose tracers were then added at working concentrations of 20 μM and incubated for 30 minutes on a 37° C. shaker at 400 RPM. After 30 minutes, cells were quickly spun down again using the protocol described in herein and supernatant was removed and replaced with fresh inhibitor/KCl solution before immediately being placed on the flow cytometer. Each sample was run on the flow cytometer using identical settings described above.
Background: A flow cytometer gives signals particle by particle.

Assay [2] addresses T1, GLUT1. Briefly: small molecule GLUT1 inhibition study of tracer uptake (flow cytometry). The method, then: as §1, with “Each sample was run on the flow cytometer using identical settings described above.” left out
For a further assay, the system named is human erythrocytes. Briefly: single cell 2-NBDG uptake in anchored RBCs (microfluidic perfusion, confocal microscopy). The method, then:
Sample preparation. Human whole blood from an individual donor was drawn into sodium heparin (NaHep) and shipped cold. Samples were received directly from BioIVT LLC and placed into 4° C. refrigeration until prepared for experimentation. Samples removed from refrigeration for experimentation purposes were first inverted for three minutes and then 200 μL were drawn from the collection tubes and placed into a fresh 1.5 mL centrifuge tube containing 1 mL of 125 mM KCl solution. Samples were gently inverted 5-10× and then placed in a 4° C. centrifuge and spun using a modified RBC isolation protocol aimed at reducing clotting of whole blood and deformation of RBCs (Hanson et al., American Journal of Physiology Heart and Circulatory Physiology, 2008. 295(2): p. H786-H793). Centrifugation-based separation of RBCs was performed at 2000 RPM (490×g) for 5 minutes. After centrifugation, supernatant was removed along with buffy coat (white blood cells, etc.) using a pipette and a fresh 1 mL of KCl solution was then added. This process was repeated 3× to isolate RBCs and diminish intracellular glucose.
Samples were then vortexed gently and placed on a 37° C. shaker at 400 RPM for one hour for incubation. Due to the high expression of glycophorin A+B in erythrocytes, it was a simple membrane target for antibody anchoring of cells to the microfluidic imaging surface using the biotin binding Neutravidin™ system.
Microfluidic Perfusion. An ONIX microfluidic perfusion system from CellAsic (Millipore Sigma) was used for flow-based experiments. The system comprises a perfusion pump system, which connects to a PC for multidimensional control of flow rates (converted from applied kPa, i.e., 27.6 kPA=20 μL/hr) and duration. The plates used for experiments herein are model Y04C. This plate system has a #1.5 glass bottom for imaging and contains four separate channels which have an observation region where fluid switching can occur homogenously. Plates were removed from vacuum packaging the day of experimentation and storage PBS was removed using a vacuum system. Each well was then filled with 400 μL of KCl solution and placed on the perfusion system. KCl solution was flowed through each channel and well (except for the waste well #7) at 20 μL/hr for 20 minutes to flush out any storage PBS. Next, one of the wells (#1 for each channel) was filled with 100 μL 0.1 mg/mL Pierce™ biotinylated-bovine serum albumin (B-BSA, Cat #29130, Thermo Scientific) in 125 mM KCl solution and this was then flowed through for 15 minutes total, then allowed to incubate for 15 minutes at room temperature. After the B-BSA was deposited on the glass surface of the channels, a 0.1 mg/mL solution of Neutravidin (Cat #31000, Thermo Scientific) in KCl solution was flowed for 15 minutes at room temperature to build a surface anchoring system for red blood cells.
For uptake measurements, cells incubated with biotinylated-α-glycophorin A+B antibodies were diluted 1:1 in KCl solution within well #8 and perfused using 20 μL/hr in combination with well #5 containing KCl solution only at 20 μL/hr for 10 seconds. Flowed cells were then allowed to incubate with the cell anchoring system described above for three minutes. […] Immediately after this time point, well #2 was stopped, and KCl solution only from well #5 was perfused at 20 μL/hr to wash away tracer (“washout”).
For uptake measurements, the 488 nm laser was configured for excitation to a power level of 0.07% of total laser voltage (i.e., 3.5 μW before the objective) with a pixel dwell time of 0.24 μs. For detection, the detector bandwidth was set to admit wavelengths 520 nm to 560 nm with a master gain of 500 V and digital gain set to 1×. The field of view was 1944 pixels×1944 pixels (or 192.8 μm×192.8 μm) which led to a total frame time of 989.11 ms for a single acquisition. With these settings and using the 40× magnification, the pixel size was ˜0.1 μm×˜0.1 μm.

The mark [3] stands for this setting: 5 mM 2-NBDG, all cells, height corrected, FIG. 16B.
The mark [4] stands for this setting: normalized to the all donor mean, N=45, FIG. 18.

Where “and” joins values, the source holds several entries; their conditions need not be identical. Equal entries are not always repeated. Entries after “also recorded” stand apart in the source; their conditions may differ.

“D-Glucose-Silicon rhodamine [D-glucose-SIR]”: the “mean intensity maintained, % of the mean intensity of the control sample” value (“mean intensity maintained, %” below) at GLUT1 [1] was 41.9%.

Regarding “6-deoxy-2-[(7-nitro-2,1,3-benzoxadiazol-4-yl)amino]-D-glucose [6-NBDG]”, the “mean intensity maintained, %” value at GLUT1 [1] worked out at 13.8%.

Take `O=C[C@H](Nc1ccc([N+](=O)[O-])c2nonc12)[C@@H](O)[C@H](O)[C@H](O)CO` [2-NBDG, 2-deoxy-2-[(7-nitro-2,1,3-benzoxadiazol-4-yl)amino]-D-glucose]: the “competition with unlabeled D-glucose among three tracers” value at GLUT1 [1] (0.00-100.00 mM D-glucose, FIG. 9C) is given as “highest competition”. The “mean intensity maintained, %” value at GLUT1 [1] turned out to be 1.4%. Also, the “inhibition of tracer uptake by GLUT1 inhibitors, compared with other tracers” value at GLUT1 [2] (Phloretin, Cytochalasin B, WZB117, STF-31, BAY-876, 20 μM tracer, FIG. 1B) was “most inhibition; also recorded: consistently the most inhibited”. For the same molecule, the “specificity for the GLUT1 transporter” value on GLUT1 [2] (human RBCs, inhibitor panel and glucose competition experiments) is “highest specificity; also recorded: GLUT1 specific”. Further, the “time to saturation point of intracellular 2-NBDG intensity” value in the assay on human erythrocytes (5 mM 2-NBDG, 20 μL/hr, FIG. 11B) is given as “within several seconds”. In the assay with human erythrocytes (5 mM 2-NBDG, 1802 cells, cell heights ≥2.1 μm, mean±1 SD, FIG. 14B), the “mean intracellular glucose fraction, typical patient with higher fraction” value was 6.7% and 6.7%±2.3%. The “mean intracellular glucose fraction, typical patient with lower fraction” value in the assay on human erythrocytes (5 mM 2-NBDG, 2343 cells, cell heights ≥2.1 μm, mean±1 SD, FIG. 14A) is 4.6% and 4.6%±1.6%. The “mean intracellular percentage for this patient blood sample” value with human erythrocytes (5 mM 2-NBDG, FIG. 11C) worked out at 4.9%. The “intracellular glucose percentage, Black patients” value in the assay on human erythrocytes (5 mM 2-NBDG, FIG. 16A, n=20, mean±1 SD) is recorded as 0.057±0.018. Further, the “intracellular glucose percentage, Caucasian/Hispanic patients” value with human erythrocytes (5 mM 2-NBDG, FIG. 16A, n=25, mean±1 SD) was 0.044±0.018. In the assay on human erythrocytes (5 mM 2-NBDG, FIG. 17), the “mean (+/−SD) uptake normalized to overall mean, Black ancestry” value is 118%+/−39% and the “mean (+/−SD) uptake normalized to overall mean, White ancestry” value was 86%+/−36%. In addition, in the assay with human erythrocytes (setting [3]), the “corrected intracellular glucose percentage (HCIG), Black patients” value was 0.060±0.020 and the “corrected intracellular glucose percentage (HCIG), Caucasian/Hispanic patients” value stood at 0.044±0.018. In the assay with human erythrocytes (extended duration measurements, FIGS. 13A-13B), the “stability of saturating intracellular level (plateau)” value is recorded as “stable for several hours”. In the assay with human erythrocytes (setting [4]), the “mean normalized intracellular glucose, Black sub-group” value is 1.18 and the “mean normalized intracellular glucose, Hispanic/Caucasian sub-group” value was 0.86.
